Reference: patent US12162848B2, “Inhibitors of protein tyrosine phosphatase, compositions, and methods of use” (BRISTOL-MYERS SQUIBB COMPANY, priority 2022, dated 2024)

Experiments:
PTPN2 enzyme = target: T1, PTPN2 enzyme (Homo sapiens, UniProt P17706); test: PhosphoSens PTPN2 biochemical assay; conditions: substrate AQT0264 20 μM, room temperature; read-out: PTPN2 BCHEM IC50
T1 sequence (P17706 1-415): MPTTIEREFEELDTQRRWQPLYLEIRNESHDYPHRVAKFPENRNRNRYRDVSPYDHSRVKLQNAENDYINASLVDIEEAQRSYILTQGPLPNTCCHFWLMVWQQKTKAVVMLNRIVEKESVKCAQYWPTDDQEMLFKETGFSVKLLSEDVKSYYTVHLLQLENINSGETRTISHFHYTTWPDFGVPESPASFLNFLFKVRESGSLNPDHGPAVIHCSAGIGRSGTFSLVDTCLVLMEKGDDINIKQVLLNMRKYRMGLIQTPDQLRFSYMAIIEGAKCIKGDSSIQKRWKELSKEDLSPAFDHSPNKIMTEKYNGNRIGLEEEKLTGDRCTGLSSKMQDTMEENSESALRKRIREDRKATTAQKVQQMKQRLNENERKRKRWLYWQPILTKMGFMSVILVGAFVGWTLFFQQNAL
Method in brief: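 PhosphoSens fluorescence format with 20 μM final AQT0264 substrate and […] in 50 mM HEPES pH 7.5, 500 μM EGTA, […], 0.01% Brij-35, 1% glycerol, 1 mM DTT, 0.2 mg/mL BSA. Compounds in 3-fold dilution series; progress curves read (ex 360/em 480 nm) every 71 s for 1 h at room temperature.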

[1] = system: phosphorylated STAT1 protein levels in B16-F10 cells; test: Phospho-STAT1 (Tyr701) HTRF assay in IFN-gamma treated B16-F10 cells; format: cell-based; conditions: mouse IFN-gamma 100 ng/mL, 1 hour, read-out: pSTAT1 HTRF B16 EC50
Method in brief: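 Mouse B16-F10 cells, 10,000/well, pretreated 1 h with compound (0.15% DMSO), then stimulated with mouse IFN-gamma at 100 ng/mL final for 1 h at 37 C. Phospho-STAT1 (Tyr701) measured by HTRF.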

B16-F10 cells = test: Cell proliferation assay (CellTiter-Glo) in IFN-gamma treated B16-F10 cells; format: cell-based; conditions: 120 h, mouse IFN-gamma 10 ng/mL, read-out: PTPN2 Prolif 5d B16F10 EC50

Compound | IC50 (PTPN2 enzyme) [nM] | EC50 [1] [nM] | EC50 (B16-F10 cells) [nM]
CC(C)CCN1CCCC(c2cc(O)c(N3CC(=O)NS3(=O)=O)c(F)c2)C1 (stereo not drawn) [EXAMPLE 5, 5-(2-fluoro-6-hydroxy-4-(1-isopentylpiperidin-3-yl)phenyl)-1,2,5-thiadiazolidin-3-one 1,1-dioxide] | 1020 | ≥ 15000 | ≥ 15000
O=C1CN(c2c(O)cc(CNC3CCCCC3)cc2F)S(=O)(=O)N1 [EXAMPLE 34, 5-[4-[(cyclohexylamino)methyl]-2-fluoro-6-hydroxy-phenyl]-1,1-dioxo-1,2,5-thiadiazolidin-3-one] | 90 | 1740 | 1720
CN(Cc1cc(O)c(N2CC(=O)NS2(=O)=O)c(F)c1)C1CCCCC1 [EXAMPLE 43, 5-(4-((cyclohexyl(methyl)amino)methyl)-2-fluoro-6-hydroxyphenyl)-1,2,5-thiadiazolidin-3-one 1,1-dioxide] | 239 | 4270 | 4350
O=C1CN(c2c(O)cc(CN3CCOCC3)cc2F)S(=O)(=O)N1 [EXAMPLE 41, 5-(2-fluoro-6-hydroxy-4-(morpholinomethyl)phenyl)-1,2,5-thiadiazolidin-3-one 1,1-dioxide] | 70 | 3380 | 3560
CCN1CCC(NCc2cc(O)c(N3CC(=O)NS3(=O)=O)c(F)c2)CC1 [EXAMPLE 40, 5-(4-(((1-ethylpiperidin-4-yl)amino)methyl)-2-fluoro-6-hydroxyphenyl)-1,2,5-thiadiazolidin-3-one 1,1-dioxide] | 131 | 2340 | 3260

More lines, now with the values ahead:

IC50 (PTPN2 enzyme) [nM] | EC50 [1] [nM] | EC50 (B16-F10 cells) [nM] | Compound
131 | ≥ 15000 | ≥ 15000 | COCCN1CCN(Cc2cc(O)c(N3CC(=O)NS3(=O)=O)c(F)c2)CC1 [EXAMPLE 44, 5-(2-fluoro-6-hydroxy-4-((4-(2-methoxyethyl)piperazin-1-yl)methyl)phenyl)-1,2,5-thiadiazolidin-3-one 1,1-dioxide]
336 | ≥ 15000 | ≥ 15000 | COCCN1CCN(c2cc(O)c(N3CC(=O)NS3(=O)=O)c(F)c2)CC1 [EXAMPLE 86, 5-(2-fluoro-6-hydroxy-4-(4-(2-methoxyethyl)piperazin-1-yl)phenyl)-1,2,5-thiadiazolidin-3-one 1,1-dioxide]
35 | 1150 | 656 | CC1(C)CCC[C@@H](NCc2cc(O)c(N3CC(=O)NS3(=O)=O)c(F)c2)C1 [EXAMPLE 51, 5-[4-[[[(1R)-3,3-dimethylcyclohexyl]amino]methyl]-2-fluoro-6-hydroxy-phenyl]-1,1-dioxo-1,2,5-thiadiazolidin-3-one]
139 | 2180 | 2720 | O=C1CN(c2c(O)cc(CN[C@@H]3CCCOC3)cc2F)S(=O)(=O)N1 [EXAMPLE 64, (R)-5-(2-fluoro-6-hydroxy-4-(((tetrahydro-2H-pyran-3-yl)amino)methyl)phenyl)-1,2,5-thiadiazolidin-3-one 1,1-dioxide]
126 | 2700 | 1670 | O=C1CN(c2c(O)cc(CN[C@H]3CCCOC3)cc2F)S(=O)(=O)N1 [EXAMPLE 67, (S)-5-(2-fluoro-6-hydroxy-4-(((tetrahydro-2H-pyran-3-yl)amino)methyl)phenyl)-1,2,5-thiadiazolidin-3-one 1,1-dioxide]
